Reference: patent publication US20250134869A1, “Pyrrolo[2,3-d]pyrimidinyl, Pyrrolo[2,3-b]pyrazinyl and Pyrrolo[2,3-d]pyridinyl Acryla-mides” (Pfizer Inc, priority 2021, published 2025)
Like-named read-outs stand apart in the source and are kept apart here.

What was measured:
[1] = test system: IL-15 induced P-STAT5 in human PBMC; assay: PBMC IL-15 induced P-STAT5; assay type: cell-based; conditions: human PBMC, IL-15 stimulated, read-out: PBMC IL15-pSTAT5 IC50
Procedure: PBMC IL-15 Induced P-STAT5
Frozen human PBMC (200-250 million cells/vial) was thawed at 37° C. The cells were transferred to 10 mL warm medium in a 50-mL conical tube, and centrifuged at 1,200 RPM at room temperature for 5 min. The supernatant was aspirated. […] After adding 47 ml D-PBS (37° C.) to PBMC/FBS suspension, centrifuging at 1,200 RPM at room temperature for 5 min, and aspirating the supernatant, the cells were resuspended in 20 mL warm RPMI medium. Ninety μL of cell suspension were pipetted per well in a 96-well, deep-well, V-bottom plate, and the plate was incubated at 37° C. for 30 min. […] After adding 0.8 mL staining buffer per well, the plates were centrifuged at 1,200 RPM (Beckman GS-6R or Sorvall Legend) at room temperature for 5 min, and again the supernatant was aspirated using a 8-channel or 12-channel manifold. The plate was vortexed, and 0.35 mL 90% methanol/10% H2O (−20° C.) was added per well, and the plate incubated on ice for 20 min. After again adding 0.8 mL staining buffer per well, the plates were centrifuged at 1,200 RPM (Beckman GS-6R or Sorvall Legend) at room temperature for 5 min, and again the supernatant was aspirated using a 8-channel or 12-channel manifold, and then 0.8 mL Staining buffer was added per well. After once again adding 0.8 mL staining buffer per well, the plates were centrifuged at 1,200 RPM (Beckman GS-6R or Sorvall Legend) at room temperature for 5 min, and again the supernatant was aspirated using a 8-channel or 12-channel manifold. […] Samples of 250 μL/well were transferred to a 96-well U-bottom plate, and the FACS analysis was performed gating on total lymphocytes. Samples were analyzed using a BD Calibur™ or BD FACSCanto™ flow cytometer equipped with the BD High Throughput Sampler.

JAK3 enzyme = JAK3 enzyme (Homo sapiens (Human), UniProt P52333); assay: JAK Caliper Enzyme Assay at 4 μM or 1 mM ATP; assay type: biochemical
JAK3 enzyme, sequence (P52333 whole entry, species assumed): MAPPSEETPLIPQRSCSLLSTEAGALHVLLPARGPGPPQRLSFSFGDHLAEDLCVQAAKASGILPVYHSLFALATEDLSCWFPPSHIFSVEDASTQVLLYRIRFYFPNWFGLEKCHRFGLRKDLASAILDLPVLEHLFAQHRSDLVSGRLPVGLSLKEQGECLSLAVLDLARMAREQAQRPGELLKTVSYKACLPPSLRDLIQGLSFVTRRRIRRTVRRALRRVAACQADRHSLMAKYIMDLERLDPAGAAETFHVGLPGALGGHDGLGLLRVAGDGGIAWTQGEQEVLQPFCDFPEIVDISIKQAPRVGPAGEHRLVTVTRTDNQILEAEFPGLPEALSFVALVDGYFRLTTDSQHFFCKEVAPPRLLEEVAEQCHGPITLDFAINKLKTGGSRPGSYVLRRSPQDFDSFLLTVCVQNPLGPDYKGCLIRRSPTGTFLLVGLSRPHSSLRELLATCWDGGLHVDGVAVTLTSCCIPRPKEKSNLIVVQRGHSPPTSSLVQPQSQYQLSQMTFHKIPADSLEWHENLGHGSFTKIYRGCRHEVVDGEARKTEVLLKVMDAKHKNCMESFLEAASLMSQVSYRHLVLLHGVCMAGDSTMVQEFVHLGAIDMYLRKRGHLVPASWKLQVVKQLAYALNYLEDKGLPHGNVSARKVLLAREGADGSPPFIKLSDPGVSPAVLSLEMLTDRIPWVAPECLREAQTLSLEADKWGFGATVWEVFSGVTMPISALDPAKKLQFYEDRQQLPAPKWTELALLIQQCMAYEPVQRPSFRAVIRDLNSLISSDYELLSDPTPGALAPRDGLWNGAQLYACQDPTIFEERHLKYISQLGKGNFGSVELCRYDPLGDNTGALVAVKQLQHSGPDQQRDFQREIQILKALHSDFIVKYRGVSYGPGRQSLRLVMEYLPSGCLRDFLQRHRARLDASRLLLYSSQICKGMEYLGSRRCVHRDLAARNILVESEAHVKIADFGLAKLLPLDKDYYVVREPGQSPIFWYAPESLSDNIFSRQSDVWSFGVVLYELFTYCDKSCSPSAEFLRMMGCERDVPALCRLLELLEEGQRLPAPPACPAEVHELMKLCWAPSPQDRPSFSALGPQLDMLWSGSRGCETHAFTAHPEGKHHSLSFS

[2] = read-out: JAK3 (4 μM ATP) IC50, 4 μM ATP
[3] = read-out: JAK3 (1 mM ATP) IC50, 1 mM ATP

Row | SMILES | IC50 (JAK3 enzyme; [2]) | IC50 (JAK3 enzyme; [3]) | IC50 [1] | IC50 ([1]; Homo sapiens, PBMC)
1 | C=CC(=O)N1CC[C@H](O)[C@@H](Nc2ncnc3[nH]ccc23)C1 (racemic) [Example 113, rac-1-[(3S,4S)-4-Hydroxy-3-(7H-pyrrolo[2,3-d]pyrimidin-4-ylamino)piperidin-1-yl]prop-2-en-1-one] |  |  | > 10000 nM | 
2 | C=CC(=O)N1CC[C@@H]2CCN(c3ncnc4[nH]ccc34)[C@H]2C1 [Example 49, 1-[(3aS,7aR)-1-(7H-Pyrrolo[2,3-d]pyrimidin-4-yl)octahydro-6H-pyrrolo[2,3-c]pyridin-6-yl]prop-2-en-1-one] |  |  | 355 nM | 
3 | C=CC(=O)N1CC(Nc2ncnc3[nH]ccc23)CCC1CO (stereo not drawn) [Example 52, 1-[2-(Hydroxymethyl)-5-(7H-pyrrolo[2,3-d]pyrimidin-4-ylamino)piperidin-1-yl]prop-2-en-1-one] |  |  | > 354 nM | 
4 | C=CC(=O)N1CC[C@]2(C)CCN(c3ncnc4[nH]ccc34)[C@@H]2C1 [Example 59, 1-((3aS,7aS)-3a-Methyl-1-(7H-pyrrolo[2,3-d]pyrimidin-4-yl)hexahydro-1H-pyrrolo[2,3-c]pyridin-6 (2H)-yl)prop-2-en-1-one] | 3.2 nM | 403 nM |  | > 2550 nM
5 | C=CC(=O)N1CCCC(C)(Nc2ncnc3[nH]ccc23)C1 (stereo not drawn) [Example 71, 1-(3-((7H-Pyrrolo[2,3-d]pyrimidin-4-yl)amino)-3-methylpiperidin-1-yl)prop-2-en-1-one] |  |  |  | > 10000 nM
6 | C=CC(=O)N1CCC[C@@](C)(Nc2ncnc3[nH]ccc23)C1 [Example 72, (R)-1-(3-((7H-pyrrolo[2,3-d]pyrimidin-4-yl)amino)-3-methylpiperidin-1-yl)prop-2-en-1-one] |  |  |  | > 10000 nM
7 | C=CC(=O)N1CC[C@H]2CCN(c3ncnc4[nH]ccc34)[C@H]2C1 [Example 76, 1-[(3aR,7aR)-1-(7H-Pyrrolo[2,3-d]pyrimidin-4-yl)octahydro-6H-pyrrolo[2,3-c]pyridin-6-yl]prop-2-en-1-one] |  |  | > 6080 nM | 
8 | C=CC(=O)N1C[C@H](OC)C[C@@H](N(C)c2ncnc3[nH]ccc23)C1 [Example 78, 1-{(3R,5R)-3-Methoxy-5-[methyl(7H-pyrrolo[2,3-d]pyrimidin-4-yl)amino]piperidin-1-yl}prop-2-en-1-one] | 387 nM | > 10000 nM | > 10000 nM | 
9 | O=C(/C=C/C(F)(F)F)N1CC[C@@H]2CCN(c3ncnc4[nH]ccc34)[C@@H]2C1 [Example 81, (2E)-4,4,4-trifluoro-1-[(3aS,7aS)-1-(7H-pyrrolo[2,3-d]pyrimidin-4-yl)octahydro-6H-pyrrolo[2,3-c]pyridin-6-yl]but-2-en-1-one] |  |  |  | > 4000 nM
10 | CN(C)C/C=C/C(=O)N1CC[C@@H]2CCN(c3ncnc4[nH]ccc34)[C@@H]2C1 [Example 82, (2E)-4-(dimethylamino)-1-[(3aS,7aS)-1-(7H-pyrrolo[2,3-d]pyrimidin-4-yl)octahydro-6H-pyrrolo[2,3-c]pyrdin-6-yl]but-2-en-1-one] | 57.2 nM | 5290 nM | > 7300 nM | 
11 | C=CC(=O)N1CC[C@@H]2CCN(c3ncnc4[nH]cc(CCOC)c34)[C@@H]2C1 [Example 89, 1-{(3aS,7aS)-1-[5-(2-Methoxyethyl)-7H-pyrrolo[2,3-d]pyrimidin-4-yl]octahydro-6H-pyrrolo[2,3-c]pyridin-6-yl}prop-2-en-1-one] | 35.2 nM | 3940 nM | > 6160 nM | 
12 | C=CC(=O)N1CC[C@@H]2OCCN(c3ncnc4[nH]ccc34)[C@@H]2C1 [Example 90, 1-[(4aR,8aS)-4-(7H-Pyrrolo[2,3-d]pyrimidin-4-yl)hexahydro-2H-pyrido[4,3-b][1,4]oxazin-6 (5H)-yl]prop-2-en-1-one] |  |  |  | > 10000 nM
13 | C=C(CN(C)C)C(=O)N1CCC[C@@H](Nc2ncnc3[nH]ccc23)C1 [Example 92, 2-[(dimethylamino)methyl]-1-[(3R)-3-(7H-pyrrolo[2,3-d]pyrimidin-4-ylamino)piperidin-1-yl]prop-2-en-1-one] |  |  | > 10000 nM | 
14 | C=CC(=O)N1CC[C@@H]2OCCN(c3ncnc4[nH]ccc34)[C@H]2C1 [Example 119, 1-[(4aS,8aS)-4-(7H-Pyrrolo[2,3-d]pyrimidin-4-yl)hexahydro-2H-pyrido[4,3-b][1,4]oxazin-6 (5H)-yl]prop-2-en-1-one] |  |  | > 10000 nM | 
15 | C=CC(=O)N1CCC(Oc2cnc3[nH]cc(-c4cncc(C#N)c4)c3n2)CC1 [Example 225, 5-{2-[(1-acryloylpiperidin-4-yl)oxy]-5H-pyrrolo[2,3-b]pyrazin-7-yl}pyridine-3-carbonitrile] | 1.4 nM | 120 nM | 2910 nM | 
16 | C=CC(=O)N1CCC(Oc2cnc3[nH]cc(-c4ccc(F)nc4)c3n2)CC1 [Example 226, 1-(4-{[7-(6-fluoropyridin-3-yl)-5H-pyrrolo[2,3-b]pyrazin-2-yl]oxy}piperidin-1-yl)prop-2-en-1-one] | 1 nM | 91 nM | 699 nM | 

The next lines start with results.

Row | IC50 (JAK3 enzyme; [2]) | IC50 (JAK3 enzyme; [3]) | SMILES | IC50 [1] | IC50 ([1]; Homo sapiens, PBMC)
17 | 5.3 nM | 996 nM | C=CC(=O)N1CC[C@@H](O)[C@@H](Nc2ncnc3[nH]ccc23)C1 (racemic) [Example 64, 1-[(3S,4R)-4-Hydroxy-3-(7H-pyrrolo[2,3-d]pyrimidin-4-ylamino)piperidin-1-yl]prop-2-en-1-one] | 4640 nM | 
18 | 48.2 nM | 358 nM | C=CC(=O)N1CCC[C@@H](Nc2ncnc3[nH]cc(-c4cnn(C)c4)c23)C1 [Example 28, 1-[(3R)-3-{[5-(1-methyl-1H-pyrazol-4-yl)-7H-pyrrolo[2,3-d]pyrimidin-4-yl]amino}piperidin-1-yl]prop-2-en-1-one] | > 10000 nM | 
19 | 4 nM | 608 nM | C=CC(=O)N1CCC[C@@H](Nc2ccnc3[nH]cc(C)c23)C1 [Example 47, 1-{(3R)-3-[(3-methyl-1H-pyrrolo[2,3-b]pyridin-4-yl)amino]piperidin-1-yl}prop-2-en-1-one] | 1080 nM | 
20 | 703 nM | > 10000 nM | C=C(CO)C(=O)N1CCC[C@@H](Nc2ncnc3[nH]ccc23)C1 [Example 93, 2-(hydroxymethyl)-1-[(3R)-3-(7H-pyrrolo[2,3-d]pyrimidin-4-ylamino)piperidin-1-yl]prop-2-en-1-one] | > 10000 nM | 
21 | 802 nM | > 10000 nM | C=C(COC)C(=O)N1CCC[C@@H](Nc2ncnc3[nH]ccc23)C1 [Example 94, 2-(methoxymethyl)-1-[(3R)-3-(7H-pyrrolo[2,3-d]pyrimidin-4-ylamino)piperidin-1-yl]prop-2-en-1-one] | > 10000 nM | 
22 | 692 nM | > 10 nM | C=CC(=O)c1c[nH]c2ncnc(N[C@H]3CN(C(=O)C=C)CC[C@H]3F)c12 [Example 120, 1-(4-{[(3S,4R)-1-Acryloyl-4-fluoropiperidin-3-yl]amino}-7H-pyrrolo[2,3-d]pyrimidin-5-yl)prop-2-en-1-one] | > 10000 nM | 
23 | 622 nM |  | C=CC(=O)N1CC[C@@H](Nc2cnc3[nH]ccc3n2)C1 [Example 335, (R)-1-(3-((5H-Pyrrolo[2,3-b]pyrazin-2-yl)amino)pyrrolidin-1-yl)prop-2-en-1-one] | > 10000 nM | 
24 | 30.6 nM | 3400 nM | C=CC(=O)N1CC[C@H](Nc2cnc3[nH]ccc3n2)C1 [Example 336, (S)-1-(3-((5H-Pyrrolo[2,3-b]pyrazin-2-yl)amino)pyrrolidin-1-yl)prop-2-en-1-one] | > 10000 nM | 
